From patent US20240158392A1 (Janssen Biotech, Inc., priority 2021, published 2024)

How the values were obtained:
[1] = biological target: T1, SIK2 (Homo sapiens, UniProt Q9H0K1); test: SIK2 Enzymatic Assay Version 1 (ADP Glo); assay type: biochemical; conditions: enzyme 0.6 nM, 160 μM ATP and 140 μM HDAC5tide (each 2× final concentration); 30 minutes pre-incubation, 4 hours; ADPGlo luminescence; read-out: SIK2 ADP Glo IC50 (μM) (Test Example 1)
Method in brief: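 Room-temperature ADP-Glo luminescence assay; SIK2 added at 0.6 nM (2× final) and preincubated with compound for 30 min. Reaction stopped with ADP-Glo Reagent for 40 min, then detection reagent for at least 30 min; no-peptide (ATP-only) wells served as negative control.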

[2] = biological target: T1, SIK2; test: SIK2 Enzymatic Assay High Version 2 (High ATP); assay type: biochemical
Method in brief: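 At room temperature, enzyme (6 nM, 2× final) was preincubated with compound for 30 min, then 6 mM ATP and 400 μM HDAC5tide (both 2× final) were added for 2 h. ADP formed was measured by ADP-Glo Max (2 h reagent, 1 h detection) using luminescence.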

T1 sequence (Q9H0K1 whole entry, species assumed): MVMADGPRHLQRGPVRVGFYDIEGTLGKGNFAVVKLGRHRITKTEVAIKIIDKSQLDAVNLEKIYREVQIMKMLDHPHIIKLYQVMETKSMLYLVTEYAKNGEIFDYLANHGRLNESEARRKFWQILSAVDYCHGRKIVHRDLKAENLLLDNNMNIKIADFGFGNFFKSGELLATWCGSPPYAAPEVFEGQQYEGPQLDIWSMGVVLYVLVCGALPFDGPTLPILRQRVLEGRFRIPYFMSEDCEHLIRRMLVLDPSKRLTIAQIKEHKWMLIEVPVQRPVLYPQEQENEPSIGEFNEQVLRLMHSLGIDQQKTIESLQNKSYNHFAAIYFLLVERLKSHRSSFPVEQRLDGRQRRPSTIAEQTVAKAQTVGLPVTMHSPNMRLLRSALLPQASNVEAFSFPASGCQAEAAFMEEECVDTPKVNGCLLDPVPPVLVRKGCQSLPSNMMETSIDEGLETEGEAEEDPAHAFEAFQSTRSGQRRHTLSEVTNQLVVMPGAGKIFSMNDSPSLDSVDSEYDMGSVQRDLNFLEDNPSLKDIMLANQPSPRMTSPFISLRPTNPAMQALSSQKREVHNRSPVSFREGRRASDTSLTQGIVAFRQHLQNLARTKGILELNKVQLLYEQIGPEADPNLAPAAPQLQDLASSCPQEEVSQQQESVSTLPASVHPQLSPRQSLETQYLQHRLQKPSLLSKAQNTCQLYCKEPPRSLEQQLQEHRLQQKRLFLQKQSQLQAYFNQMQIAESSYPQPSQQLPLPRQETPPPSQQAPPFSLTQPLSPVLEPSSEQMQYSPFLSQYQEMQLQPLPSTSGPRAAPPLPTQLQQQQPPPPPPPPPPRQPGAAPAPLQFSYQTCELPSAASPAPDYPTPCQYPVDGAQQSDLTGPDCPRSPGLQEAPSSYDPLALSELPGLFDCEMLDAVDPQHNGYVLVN

IC50 [1] [µM]	IC50 [2] [nM]	SMILES
0.00192	29.9	N#Cc1cc(-c2ccn3nc(NC(=O)C4CC4)cc3c2)c(OC[C@H]2C[C@@H](NC3CC3)C2)cn1 [Example 597, N-[5-[2-cyano-5-[[3-(cyclopropylamino)cyclobutyl]methoxy]-4-pyridyl]pyrazolo[1,5-a]pyridin-2-yl]cyclopropanecarboxamide]
0.0109	118	N#Cc1cc(-c2ccn3nc(NC(=O)C4CC4)cc3c2)c(OCc2ccccn2)cn1 [Example 48, N-(5-(2-Cyano-5-(pyridin-2-ylmethoxy)pyridin-4-yl)pyrazolo[1,5-a]pyridin-2-yl)cyclopropanecarboxamide]
0.0135	154	N#Cc1cc(-c2ccn3nc(NC(=O)C4CC4)cc3c2)c(OCc2cccnc2)cn1 [Example 47, N-[5-[2-Cyano-5-(3-pyridylmethoxy)-4-pyridyl]pyrazolo[1,5-a]pyridin-2-yl]cyclopropanecarboxamide]
0.00176	33.8	Cc1cc(-c2ccn3nc(Nc4ccccn4)cc3c2)c(O[C@H]2CC[C@H](O)CC2)cn1 [Example 182, trans-4-[[6-methyl-4-[2-(2-pyridylamino)pyrazolo[1,5-a]pyridin-5-yl]-3-pyridyl]oxy]cyclohexanol]
0.00334	70	Cc1cc(-c2ccn3nc(NC(=O)C4CC4)cc3c2)c(O[C@@H]2CCN(C)C2)cn1 [Example 137, N-[5-[2-methyl-5-[(3R)-1-methylpyrrolidin-3-yl]oxy-4-pyridyl]pyrazolo[1,5-a]pyridin-2-yl]cyclopropanecarboxamide]
0.0208	409	N#Cc1cc(-c2ccn3nc(NC(=O)C4CC4)cc3c2)c(N2CC(O)C2)cn1 [Example 70, N-[5-[2-cyano-5-(3-hydroxyazetidin-1-yl)-4-pyridyl]pyrazolo[1,5-a]pyridin-2-yl]cyclopropanecarboxamide]
0.00261	47.9	COCCN1CC[C@@H](Oc2cnc(C#N)cc2-c2ccn3nc(NC(=O)C4CC4)cc3c2)C1 [Example 111, (R)—N-[5-[2-cyano-5-[(3R)-1-(2-methoxyethyl)pyrrolidin-3-yl]oxy-4-pyridyl]pyrazolo[1,5-a]pyridin-2-yl]cyclopropanecarboxamide]
0.0179	821	COc1cnccc1-c1ccn2nc(NC(=O)C3CC3)cc2c1 [Example 749, N-[5-(3-methoxy-4-pyridyl)pyrazolo[1,5-a]pyridin-2-yl]cyclopropanecarboxamide]
0.00201	20.8	Cc1cc(-c2ccn3nc(Nc4ccccn4)cc3c2)c(OC[C@H]2CNCCO2)cn1 [Example 428, 5-[2-methyl-5-[[(2R)-morpholin-2-yl]methoxy]-4-pyridyl]-N-(2-pyridyl)pyrazolo[1,5-a]pyridin-2-amine]
0.00951	203	CN1CC[C@@H](COc2cnc(C#N)cc2-c2ccn3nc(Nc4ccncc4)cc3c2)C1 [Example 105, 5-[[(3R)-1-methylpyrrolidin-3-yl]methoxy]-4-[2-(4-pyridylamino)pyrazolo[1,5-a]pyridin-5-yl]pyridine-2-carbonitrile]
0.00321	20.1	CN1CCO[C@@H](COc2cnc(C#N)cc2-c2ccn3nc(NC(=O)C4CC4)cc3c2)C1 [Example 36, (R)—N-(5-(2-cyano-5-((4-methylmorpholin-2-yl)methoxy)pyridin-4-yl)pyrazolo[1,5-a]pyridin-2-yl)cyclopropanecarboxamide]
0.0047	87.6	N#Cc1cc(-c2ccn3nc(NC(=O)C4CC4)cc3c2)c(OCC23CCC(CC2)C(=O)N3)cn1 [Example 40, N-[5-[2-cyano-5-[(2-oxo-3-azabicyclo[2.2.2]octan-4-yl)methoxy]-4-pyridyl]pyrazolo[1,5-a]pyridin-2-yl]cyclopropanecarboxamide]
0.000642	16.4	Cc1cc(-c2ccn3nc(NC(=O)C4CC4)cc3c2)c(OCC2(N)CC(F)(F)C2)cn1 [Example 145, N-[5-[5-[(1-amino-3,3-difluoro-cyclobutyl)methoxy]-2-methyl-4-pyridyl]pyrazolo[1,5-a]pyridin-2-yl]cyclopropanecarboxamide]
0.204	4870	CN1CCC(Oc2cnc(C#N)cc2-c2ccn3nc(NC(=O)C4CC4)cc3c2)(C(F)(F)F)CC1 [Example 10, N-[5-[2-cyano-5-[[1-methyl-4-(trifluoromethyl)-4-piperidyl]oxy]-4-pyridyl]pyrazolo[1,5-a]pyridin-2-yl]cyclopropanecarboxamide]
0.00206	31.8	CC(C)(O)COc1cnc(C#N)cc1-c1ccn2nc(NC(=O)C3CC3)cc2c1 [Example 52, N-[5-[2-Cyano-5-(2-hydroxy-2-methyl-propoxy)-4-pyridyl]pyrazolo[1,5-a]pyridin-2-yl]cyclopropanecarboxamide]
0.0014	31.6	CN1CC[C@@H](Oc2cnc(C#N)cc2-c2ccn3nc(NC(=O)C4CC4)cc3c2)C(F)(F)C1 [Example 11, N-[5-[2-cyano-5-[[(4R)-3,3-difluoro-1-methyl-4-piperidyl]oxy]-4-pyridyl]pyrazolo[1,5-a]pyridin-2-yl]cyclopropanecarboxamide]
0.00242	30.7	N#Cc1cc(-c2ccn3nc(NC(=O)C4CC4)cc3c2)c(OC[C@H]2CCCNC2)cn1 [Example 593, N-[5-[2-cyano-5-[[(3S)-3-piperidyl]methoxy]-4-pyridyl]pyrazolo[1,5-a]pyridin-2-yl]cyclopropanecarboxamide]
0.00137	29.3	Cn1ccc(N[C@H]2C[C@@H](COc3cnc(C#N)cc3-c3ccn4nc(NC(=O)C5CC5)cc4c3)C2)n1 [Example 177, cis-N-[5-[2-cyano-5-[[3-[(1-methylpyrazol-3-yl)amino]cyclobutyl]methoxy]-4-pyridyl]pyrazolo[1,5-a]pyridin-2-yl]cyclopropanecarboxamide]
0.00116	23.4	N#Cc1cc(-c2ccn3nc(NC(=O)C4CC4)cc3c2)c(OCC2CCNC2)cn1 (stereo in doubt) [Example 45, N-[5-[2-Cyano-5-[[(3R)-pyrrolidin-3-yl]methoxy]-4-pyridyl]pyrazolo[1,5-a]pyridin-2-yl]cyclopropanecarboxamide]
0.000938	10.8	N#Cc1cc(-c2ccn3nc(NC(=O)C4CC4)cc3c2)c(OCC2CCNCC2)cn1 [Example 43, N-[5-[2-cyano-5-(4-piperidylmethoxy)-4-pyridyl]pyrazolo[1,5-a]pyridin-2-yl]cyclopropanecarboxamide]
0.000345	1.71	Cc1cc(-c2ccn3nc(Nc4cc(C)nc(C)n4)cc3c2)c(OC[C@@H]2CNCCO2)cn1 [Example 432, N-(2,6-dimethylpyrimidin-4-yl)-5-[2-methyl-5-[[(2S)-morpholin-2-yl]methoxy]-4-pyridyl]pyrazolo[1,5-a]pyridin-2-amine]

SMILES	IC50 [1] [µM]	IC50 [2] [nM]
CN1[C@@H]2CC[C@H]1C[C@@H](Oc1cnc(C#N)cc1-c1ccn3nc(NC(=O)C4CC4)cc3c1)C2 [Example 66, N-[5-[2-cyano-5-[[(1S,5R)-8-methyl-8-azabicyclo[3.2.1]octan-3-yl]oxy]-4-pyridyl]pyrazolo[1,5-a]pyridin-2-yl]cyclopropanecarboxamide]	0.000561	8.5
